Consider one molecule from patent US11912645B2, “Lipopeptide compounds for the treatment of pain disorders” (INSERM (Institut National de la Santé et de la Recherche …, priority 2017, dated 2024).

Data set [1] deals with mouse sensory neurons activated by capsaicin. Briefly: Calcium flux in sensory neurons activated by capsaicin (TRPV1 agonist). It counts as cell-based. As to conditions: capsaicin 125 nM; pretreatment with increasing amounts of compound. The method, then: FIG. 4: C12-Asn-GABA inhibits neuronal activation via the GABA B receptor. Amplitude of intracellular calcium mobilization (ΔF/F; right panel) in mouse sensory neurons and percentage of responding neurons (left panel) pretreated with increasing amounts of C12-Asn-GABA (black circle) or vehicle (HBSS; white circle) and treated with capsaicin (125 nM; A) or a mix of G protein coupled receptor agonists (histamine, serotonin and bradykinin 10 μM each; B). Data are represented as mean±SEM; n=4 independent experiments of 3 wells per condition and 30-80 neurons per well. […] Percentage of responding neurons pretreated with increasing amounts of saclofen (black circle) or vehicle (HBSS; white circle) and treated with C12-Asn-GABA (10 μM) and capsaicin (125 nM; C) or a mix of G protein coupled receptor agonist (histamine, serotonin and bradykinin 10 μM each; D). Data are represented as mean±SEM; n=4 independent experiments of 3 wells per condition and 30-80 neurons per well.
FIG. 7: C14-Asn-GABA inhibits neuronal activation by capsaicin. Amplitude of intracellular calcium mobilization (F/F; A) in mouse sensory neurons and percentage of responding neurons (B) pretreated with 10 μM of C14-Asn-GABA (black bar) or vehicle (HBSS; white bar) and treated with capsaicin (125 nM). Data are represented as mean±SEM; n=3 independent experiments of 3 wells per condition and 35-82 neurons per well.
Male C57B16 mice (6-8 weeks) were used to produce primary cultures of dorsal root ganglia (DRG) sensory neurons for calcium flux experiments, and to perform studies of colorectal distention and intestinal isotonic contraction. All procedures were approved by Institutional Animal Care Committees (CEEA 122).
To determine whether C12-Asn-GABA or C12-Asn-BABA is capable of signaling to sensory nerves, calcium mobilization studies were performed on primary cultures of mouse dorsal root ganglia (DRG) neurons. […]
(Calcium assays in cells follow changes in intracellular calcium, usually with a dye or a luminescent sensor.)

Data set [2] relates to DSS-induced visceral hypersensitivity. Briefly: DSS-induced colitis visceral hypersensitivity, visceromotor response to colorectal distension. Type of data set: in vivo, mouse. As to conditions: DSS 3% 5 days; 100 μL intracolonic 10 μM at day 5; CRD 15-60 mm Hg. The method, then: FIG. 9: C12-Asn-GABA Inhibits DSS-induced visceral hypersensitivity. Mice received DSS 3% in their drinking water for 5 days to induce colitis. At day 5, mice were intracolonically administrated with C12-Asn-GABA (10 μM; black circles) or vehicle (40% ethanol; white circles). Thirty minutes after intracolonic administration, visceromotor response (VMR) to increasing pressures of colorectal distension was performed. Data are expressed as mean±SEM, n=5 mice per group.
The analgesic properties of the C12-Asn-GABA was assessed in a mouse colitis model. Dextran sulfate sodium (DSS) at 3% during 5 days was added in the drinking water in order to induce colitis.

For data set [3], the system named is capsaicin-induced visceral hypersensitivity. Put plainly: Capsaicin-induced visceral hypersensitivity, visceromotor response to colorectal distension. It counts as in vivo, mouse. The method, then: (§1) FIG. 6: C12-Asn-GABA inhibits capsaicin-induced visceral hypersensitivity without altering Intestinal contraction. Mice received intracolonic administration of C12-Asn-GABA (10 μM; black symbols) or vehicle (40% ethanol; white symbols) and 30 minutes or 4 hours later colon (A) and blood (B) were harvested in order to quantify C12-Asn-GABA by LC-MS/MS. Data are expressed as mean±SEM, n=8 mice per group. […] Mice received intracolonic administration of C12-Asn-GABA (10 μM; black symbols) or vehicle (40% ethanol; white symbols) and 30 minutes or 4 hours later an intracolonic administration of capsaicin (100 μg/mouse; square) or its vehicle (40% ethanol; circle). Fifteen minutes after capsaicin or vehicle treatment, visceromotor response (VMR) to increasing pressures of colorectal distension was performed. Data are expressed as mean±SEM, n=7-8 mice per group. […] Ex vivo measurement of duodenal mechanical contraction frequency (B) and amplitude (C) in response to Krebs-Ringer solution (control; white bar), to DMSO 0.2% (vehicle; gray bar) or to C12-Asn-GABA (10 μM; black bar). Data are expressed as mean±SEM, n=5-6 per group. Statistical analysis was performed using Kruskal-Wallis analysis of variance and subsequent Dunn's post hoc test.
FIG. 8: Trimebutine maleate has no effect on capsaicin-induced visceral hypersensitivity. Mice received an oral treatment with vehicle (PEG200, white circle) or with trimebutine maleate (25 mg/kg, black circle) and 4 hours later an intracolonic administration of capsaicin (100 μg/mouse; black and white circle). Fifteen minutes after capsaicin, visceromotor response (VMR) to increasing pressures of colorectal distension was performed. Data are expressed as mean±SEM, n=7-8 mice per group. […]
(§2) In a first set of experiment, we assessed the ability of the C12-Asn-GABA to cross the epithelial barrier, in vivo. […] The impact of C12-Asn-GABA on visceral hypersensitivity was assessed by measuring the visceromotor responses (VMR) to colorectal distension (CRD). […]

A short description of data set [4]: Colon and blood levels after intracolonic administration (LC-MS/MS). Type of data set: in vivo, mouse. As to conditions: intracolonic 10 μM; 30 minutes or 4 hours; vs vehicle. The protocol:
as §1, with “Statistical analysis was performed using Kruskal-Wallis analysis of variance and subsequent Dunn's post hoc test.” left out
as §2

As for `CCCCCCCCCCCC(=O)NC(CC(N)=O)C(=O)NCCCC(=O)O` (stereo not drawn) [C12-Asn-GABA, C11 C(O)-Asn-gamma-aminobutyric acid], in data set [1], the “calcium flux increase induced by capsaicin (% responding neurons, amplitude ΔF/F)” value is “prevented by C12-Asn-GABA pretreatment in a dose-dependent manner”. Also, in data set [2], the “DSS-induced increase in VMR to CRD” value was “significantly decreased for all distension pressures”. In addition, the “capsaicin-evoked increase in VMR to CRD” value in data set [3] (100 μL intracolonic 10 μM pretreatment, capsaicin 100 μg/animal, CRD 15-60 mm Hg) is reported as “significantly prevented for all distension pressures”. For the same molecule, in data set [3] (intracolonic 10 μM, no capsaicin), the “visceral sensitivity in response to CRD in the absence of capsaicin” value is given as “did not modify visceral sensitivity”. Further, in data set [4], the “concentration in the blood” value is reported as “increased the concentration” and the “concentration in the colonic tissue” value is given as “increased the concentration”.
